In US12486269B2 (Aconcagua Bio, Inc., priority 2024, dated 2025):

Columns and labels:
[1] = biological target: T1, COS-7/AMY3 (human calcitonin receptor (CTR) and RAMP3) (Homo sapiens, UniProt O60896+P30988); assay: Amylin Receptor cAMP Assay II; assay type: cell-based; conditions: values marked **: Amylin Receptor cAMP Assay II; COS-7/AMY3 cells, cAMP dynamic 2 kit, 30 min; read-out: Amylin Receptor cAMP Stimulation Activity: EC50
T1 construct: expressed in transfected cells; host or cells: COS-7
Source text: AMYRs are heterodimers of the class B calcitonin (CT) G-protein-coupled receptor (CTR) and receptor activity-modifying proteins (RAMPs). All three RAMPs can interact with the CTR and form AMY1, AMY2, AMY3 with RAMP1, RAMP2 and RAMP3, respectively. Like other class B1 GPCRs, the CT receptor family is canonically coupled to Gs-mediated cAMP production, and measurement of cAMP accumulation has been the primary assay used to determine peptide selectivity and potency.
(§1) To optimize functional activity directed toward Gαs coupling, COS-7 cells were stably transfected with human calcitonin receptor (CTR) and RAMP3, simultaneously. 100×concentration of compound working solutions were prepared with 4-fold serial dilution in 384-well Echo LDV plate (Labcyte, Cat #LP-0200-BC). 200 nL/well 100×concentration of compound working solutions were moved to 384-well white microplate (Perkin Elmer, Cat #6007680) using Labcyte ECHO550. 1×10^5 cells/mL COS-7/AMY3 cell suspensions prepared with assay buffer [HBSS containing 20 mM HEPES (Gibco, Cat #15630-080), 0.5 mM IBMX (Sigma, Cat #15879) and 0.1% Casein (Sigma, Cat #C4765)], 20 μL cell suspensions were added to each well of previous generated assay plate which already contains 200 nL compound at 100×concentration using ThermoFisher Multidrop Combi (2000 cells/well). Seal the plate and incubate at 37° C. with 5% CO2 for 30 min.
(§2) After incubation, the cAMP assay signal was generated using cAMP dynamic 2 kit (Revvity, Cat #62AM4PEC). 10 μL cAMP-d2 working solution was added to each well, followed by 10 μL Anti-cAMP antibody-cryptate working solution which was added to each well using CERTUS FLEX LIQUID […]. The samples were then incubated at room temperature for 1 hour protected from light. the fluorescence was read at 665 and 615 nm with Reader PerkinElmer EnVision 2105. % Activity=100−(mean RLU of test sample−mean RLU of positive control)/(mean RLU of vehicle control−mean RLU of positive control)×100 Calcitonin Receptor (CTR) cAMP Assay

[2] = biological target: T2, human calcitonin receptor (CTR) (Homo sapiens, UniProt P30988); assay: Calcitonin Receptor (CTR) cAMP Assay; assay type: cell-based; conditions: COS7-human CTR Clone #2 stable cell line, cAMP dynamic 2 kit, 30 min; read-out: Calcitonin Receptor cAMP Stimulation Activity: EC50
T2 construct: expressed in transfected cells; host or cells: COS-7 (COS7-human CTR Clone #2)
T2 sequence (P30988 25-474): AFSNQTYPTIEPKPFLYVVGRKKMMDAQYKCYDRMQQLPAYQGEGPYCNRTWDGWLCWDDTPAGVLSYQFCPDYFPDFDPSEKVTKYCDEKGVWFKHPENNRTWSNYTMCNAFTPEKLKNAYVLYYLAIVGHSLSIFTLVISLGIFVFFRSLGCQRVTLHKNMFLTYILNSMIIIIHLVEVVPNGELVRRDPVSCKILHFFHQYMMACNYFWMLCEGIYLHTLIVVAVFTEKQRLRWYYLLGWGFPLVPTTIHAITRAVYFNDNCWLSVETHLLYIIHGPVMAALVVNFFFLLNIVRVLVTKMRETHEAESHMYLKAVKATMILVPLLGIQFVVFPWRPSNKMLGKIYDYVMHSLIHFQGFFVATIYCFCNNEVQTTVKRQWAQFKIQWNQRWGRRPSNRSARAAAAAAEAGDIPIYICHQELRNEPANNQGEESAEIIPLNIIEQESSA
Method: as §2
The calcitonin receptor (CTR) belongs to the subfamily of GPCRs known as the secretin or ‘B’ family of GPCRs. Like other class B1 GPCRs, the CT receptor family is canonically coupled to Gs-mediated cAMP production, and measurement of cAMP accumulation has been the primary assay used to determine peptide selectivity and potency.
as §1, with “to create COS7-human CTR Clone #2 stable cell line.” for “and RAMP3, simultaneously.”, “COS7-human CTR Clone #2” for “COS-7/AMY3”
as §2, with “control)×100” for “control)×100 Calcitonin Receptor (CTR) cAMP Assay”

T1 sequence (O60896 24-148, one chain of several): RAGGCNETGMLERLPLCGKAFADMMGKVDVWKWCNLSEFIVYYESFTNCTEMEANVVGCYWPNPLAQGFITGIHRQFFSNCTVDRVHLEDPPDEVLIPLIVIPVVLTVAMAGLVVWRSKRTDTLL

| SMILES | EC50 [1] | EC50 [2] |
| --- | --- | --- |
| O=C1c2c(nc(CCc3ccc(F)cc3)c(-c3n[nH]c(=O)o3)c2-c2ccc3c(c2)CCCN3Cc2ccc(F)cc2F)[C@@H]2CCCN12 [Compound 220, (S)-5-(4-(1-(2,4-difluorobenzyl)-1,2,3,4-tetrahydroquinolin-6-yl)-2-(4-fluorophenethyl)-5-oxo-7,8,9,9a-tetrahydro-5H-pyrido[2,3-a]pyrrolizin-3-yl)-1,3,4-oxadiazol-2(3H)-one] | 11400 nM | 20.5 nM |
| CC(C)C1CS(=O)(=O)c2c1nc(CCC1CCOCC1)c(-c1cc(=O)[nH]o1)c2-c1ccc2c(ccn2Cc2ccc(C#N)c(F)c2)c1 (stereo not drawn) [Compound 199, 2-fluoro-4-[[5-[3-isopropyl-1,1-dioxo-6-(3-oxoisoxazol-5-yl)-5-(2-tetrahydropyran-4-ylethyl)-2,3-dihydrothieno[3,2-b]pyridin-7-yl]indol-1-yl]methyl]benzonitrile] | 301 nM | 3.7 nM |
| Cc1cc2cc(-c3c4c(nc(CCc5ccc(F)cc5)c3-c3n[nH]c(=O)o3)C35CC(CN3C4=O)C5)sc2c(N[C@@H]2CCc3cc(F)c(F)cc32)n1 [Compound 255, (R)-5-(4-(7-((5,6-difluoro-2,3-dihydro-1H-inden-1-yl)amino)-5-methylthieno[2,3-c]pyridin-2-yl)-2-(4-fluorophenethyl)-5-oxo-8,9-dihydro-5H,7H-8,9a-methanopyrido[2,3-a]pyrrolizin-3-yl)-1,3,4-oxadiazol-2(3H)-one] | 0.318 nM | 0.0127 nM |
| COc1c(F)ccc2c1CC[C@H]2Nc1ncnc2cc(-c3c4c(nc(CCc5ccc(F)cc5)c3-c3n[nH]c(=O)o3)C35CC(CN3C4=O)C5)sc12 [Compound 268, (R)-5-(4-(4-((5-fluoro-4-methoxy-2,3-dihydro-1H-inden-1-yl)amino)thieno[3,2-d]pyrimidin-6-yl)-2-(4-fluorophenethyl)-5-oxo-8,9-dihydro-5H,7H-8,9a-methanopyrido[2,3-a]pyrrolizin-3-yl)-1,3,4-oxadiazol-2(3H)-one] | 1.07 nM | 0.077 nM |
| O=C1c2c(nc(CCc3ccc(F)cc3)c(-c3n[nH]c(=O)o3)c2-c2ccc3c(Cc4ccc(F)cc4F)noc3c2)[C@@H]2CCCN12 [Compound 221, (S)-5-(4-(3-(2,4-difluorobenzyl)benzo[d]isoxazol-6-yl)-2-(4-fluorophenethyl)-5-oxo-7,8,9,9a-tetrahydro-5H-pyrido[2,3-a]pyrrolizin-3-yl)-1,3,4-oxadiazol-2(3H)-one] | 865 nM | 15.5 nM |
| COc1c(F)ccc2c1CC[C@H]2Nc1cccc2nc(-c3c4c(nc(CCc5ccc(F)cc5)c3-c3n[nH]c(=O)o3)C35CC(CN3C4=O)C5)sc12 [Compound 267, (R)-5-(4-(7-((5-fluoro-4-methoxy-2,3-dihydro-1H-inden-1-yl)amino)benzo[d]thiazol-2-yl)-2-(4-fluorophenethyl)-5-oxo-8,9-dihydro-5H,7H-8,9a-methanopyrido[2,3-a]pyrrolizin-3-yl)-1,3,4-oxadiazol-2(3H)-one] | 14.6 nM | 0.738 nM |

The next lines start with the values.

| EC50 [1] | EC50 [2] | SMILES |
| --- | --- | --- |
| 0.8 nM | 0.00532 nM | COc1c(F)c(F)cc2c1CC[C@H]2Nc1nccc2cc(-c3c4c(nc(CCc5ccc(F)cc5)c3-c3n[nH]c(=O)o3)[C@@H]3CCCN3C4=O)sc12 [Compound 192, 5-((S)-4-(7-(((R)-5,6-difluoro-4-methoxy-2,3-dihydro-1H-inden-1-yl)amino)thieno[2,3-c]pyridin-2-yl)-2-(4-fluorophenethyl)-5-oxo-7,8,9,9a-tetrahydro-5H-pyrido[2,3-a]pyrrolizin-3-yl)-1,3,4-oxadiazol-2(3H)-one] |
| 12.2 nM | 0.8 nM | COc1cccc2c1CC[C@H]2Nc1nccc2cc(-c3c4c(nc(CCc5ccc(F)cc5)c3-c3n[nH]c(=O)o3)[C@@H]3CCCN3C4=O)sc12 [Compound 102, 5-((S)-2-(4-fluorophenethyl)-4-(7-(((R)-4-methoxy-2,3-dihydro-1H-inden-1-yl)amino)thieno[2,3-c]pyridin-2-yl)-5-oxo-7,8,9,9a-tetrahydro-5H-pyrido[2,3-a]pyrrolizin-3-yl)-1,3,4-oxadiazol-2(3H)-one] |
| 4200 nM | 102 nM | O=C1c2c(nc(CCc3ccc(F)cc3)c(-c3n[nH]c(=O)o3)c2-c2cc3ccnc(Cc4coc5ccccc45)c3s2)[C@@H]2CCCN12 [Compound 248, (S)-5-(4-(7-(benzofuran-3-ylmethyl)thieno[2,3-c]pyridin-2-yl)-2-(4-fluorophenethyl)-5-oxo-7,8,9,9a-tetrahydro-5H-pyrido[2,3-a]pyrrolizin-3-yl)-1,3,4-oxadiazol-2(3H)-one] |
| 0.733 nM | 0.239 nM | COc1cccc2c1CC(F)(F)[C@H]2Nc1nccc2cc(-c3c4c(nc(CCc5ccc(F)cc5)c3-c3n[nH]c(=O)o3)C35CC(CN3C4=O)C5)sc12 [Compound 281, (S)-5-(4-(7-((2,2-difluoro-4-methoxy-2,3-dihydro-1H-inden-1-yl)amino)thieno[2,3-c]pyridin-2-yl)-2-(4-fluorophenethyl)-5-oxo-5,7,8,9-tetrahydro-8,9a-methanopyrido[2,3-a]pyrrolizin-3-yl)-1,3,4-oxadiazol-2(3H)-one] |
| 4.54 nM | 0.255 nM | O=C1c2c(nc(CCc3ccc(F)cc3)c(-c3n[nH]c(=O)o3)c2-c2cc3ccnc(N[C@@H]4CCc5ccc(Cl)cc54)c3s2)C23CC(CN12)C3 [Compound 274, (R)-5-(4-(7-((6-chloro-2,3-dihydro-1H-inden-1-yl)amino)thieno[2,3-c]pyridin-2-yl)-2-(4-fluorophenethyl)-5-oxo-8,9-dihydro-5H,7H-8,9a-methanopyrido[2,3-a]pyrrolizin-3-yl)-1,3,4-oxadiazol-2(3H)-one] |
| 254 nM | 10.2 nM | O=C1c2c(nc(CCc3ccc(F)cc3)c(-c3n[nH]c(=O)o3)c2-c2cc3ccnc(N[C@@H]4COc5ccccc54)c3s2)[C@@H]2CCCN12 [Compound 169, 5-((S)-4-(7-(((S)-2,3-dihydrobenzofuran-3-yl)amino)thieno[2,3-c]pyridin-2-yl)-2-(4-fluorophenethyl)-5-oxo-7,8,9,9a-tetrahydro-5H-pyrido[2,3-a]pyrrolizin-3-yl)-1,3,4-oxadiazol-2(3H)-one] |
